# In patent US20220233566A1, “NOVEL CARBONATE COMPOUND HAVING PYRROLOPYRIMIDINE SKELETON OR PHARMACEUTICALLY ACCEPTABLE SALT THEREOF” (TAIHO PHARMACEUTICAL CO., LTD., priority 2019, published 2022):
# Tests used:
# Format in all cases: cell-based
# [1] = tested on: A431; experiment: Growth suppression activity to human tumor cell line (Evaluation 2); conditions: Human epidermoid carcinoma, A431, 3 days
# Experimental: (§1) Human tumor cell lines different in type were suspended in mediums, seeded in individual wells of a multi-well plate and cultured. On the day after initiation of culture, serially diluted solutions of a compound were added. Culture was carried out for further 3 days. Cells were counted by a CellTiter-Glo (manufactured by Promega KK) in accordance with the protocol recommended by Promega KK. Cell viability was calculated in accordance with the equation shown below and the concentration (IC50 (nM)) of the compound at which 50% of cell growth is inhibited was obtained.
# (§2) T: Intensity of light emitted from a well containing a compound
# (§3) C: Intensity of light emitted from a well containing no compound
# [2] = tested on: H2122; experiment: as above; conditions: NCI-H2122, 72 h, Human lung cancer, H2122, 3 days
# Experimental: as §1, §2, §3
# [3] = tested on: RKO; experiment: as above; conditions: 72 h, Human colorectal cancer, 3 days
# Experimental: as §1, §2, §3
# [4] = tested on: HCC827; experiment: as above; conditions: Human lung cancer, HCC827, 3 days
# Experimental: as §1, §2, §3
# [5] = tested on: A549; experiment: as above; conditions: A549, 72 h, Human lung cancer, A549, 3 days
# Experimental: as §1, §2, §3
# [6] = tested on: SK-BR-3; experiment: as above; conditions: Human breast cancer, SK-BR-3, 3 days
# Experimental: as §1, §2, §3
# [7] = tested on: H358; experiment: as above; conditions: NCI-H358, 72 h, Human lung cancer, H358, 3 days
# Experimental: as §1, §2, §3
# [8] = tested on: H1650; experiment: as above; conditions: NCI-H1650, 72 h, Human lung cancer, H1650, 3 days
# Experimental: as §1, §2, §3
# [9] = tested on: EBC1; experiment: Growth suppression activity in human tumor cell line; conditions: EBC-1, 72 h; Human lung cancer, EBC1, 3 days
# Experimental: as §1, with “(μM))” for “(nM))”
# as §2, §3
# [10] = tested on: H441; experiment: as above; conditions: NCI-H441, 72 h; Human lung cancer, H441, 3 days
# Experimental: as §1, with “(μM))” for “(nM))”
# as §2, §3
# [11] = tested on: Mero82; experiment: as above; conditions: 72 h; Human lung cancer, Mero82, 3 days
# Experimental: as §1, with “(μM))” for “(nM))”
# as §2, §3
# [12] = tested on: HS746T; experiment: as above; conditions: 72 h, Human stomach cancer, 3 days
# Experimental: as §1, with “(μM))” for “(nM))”
# as §2, §3
# [13] = tested on: H23; experiment: as above; conditions: NCI-H23, 72 h; Human lung cancer, H23, 3 days
# Experimental: as §1, with “(μM))” for “(nM))”
# as §2, §3
# [14] = tested on: H460; experiment: as above; conditions: NCI-H460, 72 h; Human lung cancer, H460, 3 days
# Experimental: as §1, with “(μM))” for “(nM))”
# as §2, §3
# [15] = tested on: Mero48a; experiment: as above; conditions: 72 h, Human lung cancer, 3 days
# Experimental: as §1, with “(μM))” for “(nM))”
# as §2, §3
# [16] = tested on: DLD1; experiment: as above; conditions: DLD-1, 72 h; Human colorectal cancer, DLD1, 3 days
# Experimental: as §1, with “(μM))” for “(nM))”
# as §2, §3
# [17] = tested on: MIAPACA2; experiment: as above; conditions: MIA PaCa-2, 72 h; Human pancreatic cancer, MIAPACA2, 3 days
# Experimental: as §1, with “(μM))” for “(nM))”
# as §2, §3
# [18] = tested on: MKN45; experiment: as above; conditions: MKN-45, 72 h; Human stomach cancer, MKN45, 3 days
# Experimental: as §1, with “(μM))” for “(nM))”
# as §2, §3
# [19] = tested on: CAPAN2; experiment: as above; conditions: Capan-2, 72 h; Human pancreatic cancer, CAPAN2, 3 days
# Experimental: as §1, with “(μM))” for “(nM))”
# as §2, §3
# [20] = tested on: NUGC3; experiment: as above; conditions: NUGC-3, 72 h; Human stomach cancer, NUGC3, 3 days
# Experimental: as §1, with “(μM))” for “(nM))”
# as §2, §3
# [21] = tested on: MES01; experiment: as above; conditions: 72 h; Human lung cancer, MES01, 3 days
# Experimental: as §1, with “(μM))” for “(nM))”
# as §2, §3
# [22] = tested on: BCP1; experiment: as above; conditions: BCP-1, 72 h; Human hematopoietic organ tumor, BCP1, 3 days
# Experimental: as §1, with “(μM))” for “(nM))”
# as §2, §3
# [23] = tested on: SW620; experiment: as above; conditions: SW-620, 72 h; Human colorectal cancer, SW620, 3 days
# Experimental: as §1, with “(μM))” for “(nM))”
# as §2, §3
# [24] = tested on: DOK; experiment: as above; conditions: 72 h, Human head and neck cancer, 3 days
# Experimental: as §1, with “(μM))” for “(nM))”
# as §2, §3
# [25] = tested on: 786-0; experiment: as above; conditions: 72 h; Human renal cancer, 786-0, 3 days
# Experimental: as §1, with “(μM))” for “(nM))”
# as §2, §3
# [26] = tested on: N87; experiment: as above; conditions: 72 h; Human stomach cancer, N87, 3 days
# Experimental: as §1, with “(μM))” for “(nM))”
# as §2, §3
# [27] = tested on: HCC1806; experiment: as above; conditions: 72 h; Human breast cancer, HCC1806, 3 days
# Experimental: as §1, with “(μM))” for “(nM))”
# as §2, §3
smiles,measurement,setting,value
"Nc1ncnc2c1c(Br)cn2[C@@H]1O[C@H](CO)[C@@H](O)[C@@H]1F [Comparative Example 1, (2R,3R,4S,5R)-5-(4-amino-5-bromo-7H-pyrrolo[2,3-d]pyrimidin-7-yl)-4-fluoro-2-(hydroxymethyl) tetrahydrofuran-3-ol]",IC50,"[1]; Homo sapiens, A-431, 72 h",32 nM
same,IC50,[1],18 nM
same,IC50,[2],9 nM
same,IC50,[3],31 nM
same,IC50,"[4]; Homo sapiens, HCC827, 72 h",228 nM
same,IC50,[4],176 nM
same,IC50,[5],14 nM
same,IC50,"[6]; Homo sapiens, SK-BR-3, 72 h",26 nM
same,IC50,[6],23 nM
same,IC50,[7],52 nM
same,IC50,[8],8 nM
same,IC50,[9],60 nM
same,IC50,[10],140 nM
same,IC50,[11],460 nM
same,IC50,[12],250 nM
same,IC50,[13],50 nM
same,IC50,[14],80 nM
same,IC50,[15],160 nM
same,IC50,[16],50 nM
same,IC50,[17],70 nM
same,IC50,[18],210 nM
same,IC50,[19],50 nM
same,IC50,[20],70 nM
same,IC50,[21],410 nM
same,IC50,[22],110 nM
same,IC50,[23],230 nM
same,IC50,[24],110 nM
same,IC50,[25],220 nM
same,IC50,[26],30 nM
same,IC50,[27],130 nM
